Data on 1 compound can be found in publication PMC8301926 (Biomolecules, 2021).

Assay [1] has as its target T1, human M2 muscarinic acetylcholine receptor (hM2R) (Homo sapiens, UniProt P08172).
T1 construct: host or cells: CHO cells
T1 sequence (P08172 1-466): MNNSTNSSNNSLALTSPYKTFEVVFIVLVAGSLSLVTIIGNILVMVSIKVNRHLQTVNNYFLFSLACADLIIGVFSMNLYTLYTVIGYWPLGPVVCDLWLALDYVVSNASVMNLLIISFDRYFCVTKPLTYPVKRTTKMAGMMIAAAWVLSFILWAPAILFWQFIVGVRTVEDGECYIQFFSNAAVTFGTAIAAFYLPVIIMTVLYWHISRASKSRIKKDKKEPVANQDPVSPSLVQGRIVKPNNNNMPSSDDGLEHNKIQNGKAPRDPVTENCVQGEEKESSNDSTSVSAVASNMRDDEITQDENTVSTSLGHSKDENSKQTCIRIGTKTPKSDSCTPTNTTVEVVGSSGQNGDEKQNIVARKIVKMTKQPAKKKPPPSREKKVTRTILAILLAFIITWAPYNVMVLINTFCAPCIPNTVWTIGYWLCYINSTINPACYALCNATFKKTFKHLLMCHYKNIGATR
Put plainly: M2 (h) functional GPCR assay, agonist effect, cAMP HTRF. Format: cell-based. The settings on record: 100 µM; % of control response to 3-µM acetylcholine; CHO cells.

Assay [2] concerns the target T2, recombinant human monoamine oxidase B (hMAO-B) (Homo sapiens, UniProt P27338).
T2 sequence (P27338 1-520): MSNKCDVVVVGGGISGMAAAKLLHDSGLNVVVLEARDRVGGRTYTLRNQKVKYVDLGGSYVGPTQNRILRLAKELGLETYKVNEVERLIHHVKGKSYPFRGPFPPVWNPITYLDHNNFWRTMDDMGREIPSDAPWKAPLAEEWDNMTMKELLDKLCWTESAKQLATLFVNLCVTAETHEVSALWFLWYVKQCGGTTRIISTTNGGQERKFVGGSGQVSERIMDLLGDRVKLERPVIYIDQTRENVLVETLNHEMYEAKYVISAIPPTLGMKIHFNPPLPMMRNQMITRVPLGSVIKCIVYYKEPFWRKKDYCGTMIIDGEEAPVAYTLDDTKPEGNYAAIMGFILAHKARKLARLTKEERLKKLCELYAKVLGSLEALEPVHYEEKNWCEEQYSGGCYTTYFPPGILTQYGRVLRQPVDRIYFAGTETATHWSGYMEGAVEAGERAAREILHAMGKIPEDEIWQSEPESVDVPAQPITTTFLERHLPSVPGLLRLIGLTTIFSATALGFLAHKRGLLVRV
Kind of assay: hMAO-B inhibition, MAO-Glo chemiluminescent assay. The assay is classed as biochemical. To be noted: mean ± SD of triplicate experiments.

Assay [3] concerns the target T3, human M1 muscarinic acetylcholine receptor (hM1R) (Homo sapiens, UniProt P11229).
T3 construct: host or cells: CHO cells
Kind of assay: M1 (h) functional GPCR assay, agonist effect, intracellular Ca2+. The assay is classed as cell-based. To be noted: 100 µM; % of control response to 100-nM acetylcholine; CHO cells.

Assay [4] concerns the target T4, human M4 muscarinic acetylcholine receptor (hM4R) (Homo sapiens, UniProt P08173).
T4 construct: host or cells: CHO cells
T4 sequence (P08173 1-479): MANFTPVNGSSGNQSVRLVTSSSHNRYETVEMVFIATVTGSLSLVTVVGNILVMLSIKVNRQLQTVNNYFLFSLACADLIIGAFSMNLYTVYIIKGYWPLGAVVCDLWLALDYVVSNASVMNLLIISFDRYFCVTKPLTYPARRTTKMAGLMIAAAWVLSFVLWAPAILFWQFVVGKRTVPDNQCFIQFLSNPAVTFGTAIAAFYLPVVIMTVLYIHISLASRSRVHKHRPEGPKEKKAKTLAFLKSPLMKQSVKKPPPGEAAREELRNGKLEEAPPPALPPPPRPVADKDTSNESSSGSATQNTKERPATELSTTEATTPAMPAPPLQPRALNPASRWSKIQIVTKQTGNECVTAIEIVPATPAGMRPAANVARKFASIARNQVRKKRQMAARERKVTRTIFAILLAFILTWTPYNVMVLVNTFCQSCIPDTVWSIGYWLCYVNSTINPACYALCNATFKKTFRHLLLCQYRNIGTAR
Kind of assay: M4 (h) functional GPCR assay, agonist effect, cAMP HTRF. Format: cell-based. To be noted: 100 µM; % of control response to 1-µM acetylcholine; CHO cells.

Assay [5] concerns the target T5, human M5 muscarinic acetylcholine receptor (hM5R) (Homo sapiens, UniProt P08912).
T5 construct: host or cells: RBL (rat basophilic leukemic) cells
T5 sequence (P08912 1-532): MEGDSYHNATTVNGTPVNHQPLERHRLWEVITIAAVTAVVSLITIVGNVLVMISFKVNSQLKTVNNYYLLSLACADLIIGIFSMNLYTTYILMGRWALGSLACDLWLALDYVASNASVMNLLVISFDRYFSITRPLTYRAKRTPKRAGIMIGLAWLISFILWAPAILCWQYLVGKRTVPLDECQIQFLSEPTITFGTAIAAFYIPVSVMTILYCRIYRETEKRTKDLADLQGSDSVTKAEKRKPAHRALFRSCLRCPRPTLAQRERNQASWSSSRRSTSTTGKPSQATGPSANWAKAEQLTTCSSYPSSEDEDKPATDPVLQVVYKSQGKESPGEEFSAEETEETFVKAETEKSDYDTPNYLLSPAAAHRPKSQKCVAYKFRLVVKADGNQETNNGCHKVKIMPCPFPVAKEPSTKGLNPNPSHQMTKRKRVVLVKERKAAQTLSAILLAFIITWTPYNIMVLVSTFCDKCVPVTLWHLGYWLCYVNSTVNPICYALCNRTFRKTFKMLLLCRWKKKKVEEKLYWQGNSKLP
Put plainly: M5 (h) functional GPCR assay, antagonist effect, intracellular Ca2+. The settings on record: RBL. Format: cell-based.

The target in assay [6] is T5, human M5 muscarinic acetylcholine receptor (hM5R). Kind of assay: M5 (h) functional GPCR assay, agonist effect, intracellular Ca2+. Format: cell-based. The settings on record: 100 µM; % of control response to 624-nM acetylcholine; RBL cells.
Assay [7] concerns the target T6, human M3 muscarinic acetylcholine receptor (hM3R) (Homo sapiens, UniProt P20309).
T6 construct: host or cells: CHO cells
Put plainly: M3 (h) functional GPCR assay, antagonist effect, intracellular Ca2+. The settings on record: CHO. Format: cell-based.

In assay [8] the target is T6, human M3 muscarinic acetylcholine receptor (hM3R). Kind of assay: M3 (h) functional GPCR assay, agonist effect, intracellular Ca2+. The assay is classed as cell-based. To be noted: 100 µM; % of control response to 1-µM acetylcholine; CHO cells.
The target of assay [9] is T2, recombinant human monoamine oxidase B (hMAO-B). Put plainly: hMAO-B enzyme kinetics (Lineweaver-Burk, Dixon, secondary plots). Format: biochemical. To be noted: for Ki: hMAO-B, from secondary plots; for Inhibition Type, hMAO-B: Lineweaver-Burk and Dixon plots.

T6 sequence (P20309 whole entry): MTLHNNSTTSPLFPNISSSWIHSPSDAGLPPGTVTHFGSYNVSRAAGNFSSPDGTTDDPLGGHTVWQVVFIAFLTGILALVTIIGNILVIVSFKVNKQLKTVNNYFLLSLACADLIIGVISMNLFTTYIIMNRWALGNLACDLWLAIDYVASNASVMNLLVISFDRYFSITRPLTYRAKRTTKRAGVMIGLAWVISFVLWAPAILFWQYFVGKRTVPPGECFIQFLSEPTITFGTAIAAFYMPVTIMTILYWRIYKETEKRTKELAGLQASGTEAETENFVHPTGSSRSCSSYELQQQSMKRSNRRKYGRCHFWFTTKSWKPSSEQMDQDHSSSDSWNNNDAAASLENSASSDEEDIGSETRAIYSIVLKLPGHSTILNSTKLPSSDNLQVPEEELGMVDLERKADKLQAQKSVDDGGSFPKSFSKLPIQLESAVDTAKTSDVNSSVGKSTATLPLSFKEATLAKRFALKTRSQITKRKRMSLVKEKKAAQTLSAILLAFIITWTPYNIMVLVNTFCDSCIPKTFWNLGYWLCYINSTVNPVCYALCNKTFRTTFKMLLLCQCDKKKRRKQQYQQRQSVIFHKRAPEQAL
T3 sequence (P11229 whole entry): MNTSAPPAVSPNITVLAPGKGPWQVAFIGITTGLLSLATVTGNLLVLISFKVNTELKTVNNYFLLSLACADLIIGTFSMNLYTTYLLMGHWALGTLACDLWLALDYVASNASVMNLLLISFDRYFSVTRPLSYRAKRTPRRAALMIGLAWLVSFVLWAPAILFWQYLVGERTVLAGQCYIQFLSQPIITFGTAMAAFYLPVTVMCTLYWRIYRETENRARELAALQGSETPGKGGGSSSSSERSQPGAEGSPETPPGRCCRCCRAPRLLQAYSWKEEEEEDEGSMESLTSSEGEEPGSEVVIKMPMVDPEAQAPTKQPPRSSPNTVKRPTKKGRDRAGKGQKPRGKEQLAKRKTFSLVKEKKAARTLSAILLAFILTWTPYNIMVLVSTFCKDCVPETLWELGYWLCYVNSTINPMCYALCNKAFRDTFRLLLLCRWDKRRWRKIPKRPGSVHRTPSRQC

On to `Cc1coc2c1C(=O)C(=O)c1c-2ccc2c(C)cccc12` [Tanshinone I], for which the “% Stimulation, M2” value in assay [1] turned out to be 12.6 ± 3.61%. The IC50 in assay [2] was 24.9 ± 3.82 µM. The “% Stimulation, M1” value in assay [3] was found to be 2.5 ± 0.21%. Besides, in [4], the “% Stimulation, M4” value is −23.5 ± 1.48%. In addition, the inhibition at 100 µM in assay [5] was -0.5 ± 0.42%; in assay [7], 3.3 ± 11.2%. The “% Stimulation, M5” value in assay [6] is listed as −1.6 ± 0.85%. The “% Stimulation, M3” value in assay [8] is listed as −2.3 ± 0.21%. Also, the Ki in assay [9] (Kic) turned out to be 25.6 ± 1.1 µM; in assay [9] (Kiu), 17.4 ± 0.78 µM. Further, the “Inhibition Type, hMAO-B” value was “Mixed” in assay [9] and “mixed mode of inhibition” in assay [9] (listed as 1).
